Results taken from patent US20230145868A1, “UREA INHIBITORS OF MICRO-RNA” (Board of Regents, The University of Texas System, priority 2020, published 2023).

Columns and labels:
miR-10b [1] = assay: Luciferase reporter assay of miR-10b inhibition, MCF7 cells; assay type: cell-based; details: Homo sapiens, MCF7, 48 h
Text: (§1) To identify miR-10b inhibitors, a luciferase reporter system was designed with complementary oligonucleotides for miR-10b.This luciferase reporter would repress Renilla luciferase signal in the presence of a functional mature miR-10b. However, in the presence of a small molecule that can inhibit mature miR-10b expression or affect its downstream function, the luciferase expression is restored again.
(§2) The PsiCHECK™-2 luciferase reporter vector was acquired from Promega™, Complementary oligonucleotides for hsa-miR-10b were designed based on the mature miRNA sequence and obtained from Thermo Fisher Scientific. In the design of the microRNA target sequence, several base pairs were added to have two different restriction sites recognizable by the enzyme SgfI at one side, and PmeI on the other (present in the vector as well). In addition, the insert was designed with a restriction site for SacI enzyme in order to have an additional site to digest the vector when monitoring colonies for the presence/absence of the insert. The designed oligonucleotides were annealed as follows: Complementary strands were mixed at a 1:1 molar ratio in a micro centrifuge tube. The mixture was diluted to a final concentration of 1 pmol/μl with a buffer solution of 10 mM Tris, 1 mM EDTA, and 50 mM NaCl (pH 8.0). Mixes were incubated at 95° C. for 5 min, and then the heat was reduced gradually for 70 min, until reaching 4° C. The annealed oligonucleotides were digested along with the PsiCHECK™2 vector with SgfI and PmeI and ligated at the 3′-UTR (downstream) of the Renilla luciferase reporter gene in the PsiCHECK™-2vector. Insert sequences were further confirmed in two ways: enzymatic digestion and sequencing.
(§3) MCF7 cells were seeded 24 h prior to transfection in 96 well plates (2.0×10^4 cells/well). For testing the sensitivity of the assay, antagomiRs and pre-miRs against miR-10b were used at a final concentration of 100 nM. For testing small molecule miRNA inhibitors, the compounds of interest were added to a final concentration of 10 μM. The assay was done in MCF7 or MDA-MB-231 cells at approximately 60% confluence using Lipofectamine in Opti-Mem media with the final vector concentration of 250 ng/mL. All transfections were performed in triplicate for statistical analysis. The cells were incubated at 37° C. for 6 h, followed by replacement of the transfected media with fresh media. After 48 h incubation, the media was removed, and cells were lysed and assayed with a Dual Luciferase Assay Kit (Promega) using a Vi-Tech luminometer. The ratio of Renilla to firefly luciferase expression was calculated for each of the triplicates.

miR-10b [2] = assay: Luciferase reporter assay of miR-10b inhibition, MDA-MB-231 cells; assay type: cell-based; details: Homo sapiens, MDA-MB-231, 48 h
Text: as §1, §2, §3

mature miR-10b = assay: RT-qPCR of mature miR-10b; assay type: cell-based, human; details: AGS gastric cell line; normalized to U6; vs DMSO
Description: (§4) Potential small molecule miRNA inhibitors were tested in MCF7 cells, a metastatic cell line (MM231) and an HCC cell line (HepG2) through RT-qPCR. Cells were seeded in 12-well plates 24 h before treatments at a confluence of 50-60%. They were treated at a concentration of 10 μM linifanib (positive control) or DMSO (negative control), and RNA was collected after 24 and 48 h. MicroRNA expression was tested using TaqMan microRNA assay (Applied Biosystems). The cDNA was synthesized using TaqMan Reverse Transcription Reagents kit (Applied Biosystems) and employed for quantitative RT-qPCR analysis together with TaqMan probes and SsoFastSupermix (Bio-rad). Primers and probes were purchased for hsa-miR-10b, hsa-pri-miR-10b, U6, and U48 snRNA that was used as an internal control.
(§5) To detect the levels of the precursor sequences, cDNA was synthesized using the SuperScript III cDNA kit (Invitrogen). Diluted cDNA was used for RT-qPCR analysis using iQ SYBR Green Supermix (Bio-Rad) with primers designed by in-house. Experiments were performed in triplicate; treated samples were compared to the DMSO-treated controls and normalized to the internal control. Relative expression levels were calculated using the 2-ΔCt method.

pre-miR-10b = assay: RT-qPCR of precursor miR-10b; assay type: cell-based, human; details: AGS gastric cell line; normalized to U6; vs DMSO
Description: as §4, §5

[3] = Table 3, MCF7, 10 μM compound, vs negative control (DMSO), mean of triplicate, read-out: n-fold increase in luciferase expression, Mean
[4] = Table 3, MCF7, 10 μM compound, vs negative control (DMSO), replicate #1, read-out: n-fold increase in luciferase expression, #1
[5] = Table 3, MCF7, 10 μM compound, vs negative control (DMSO), replicate #2, read-out: n-fold increase in luciferase expression, #2
[6] = Table 3, MCF7, 10 μM compound, vs negative control (DMSO), replicate #3, read-out: n-fold increase in luciferase expression, #3
[7] = Table 6, MCF7, second biological replicant, 10 μM compound, mean of triplicate, read-out: n-fold increase in luciferase expression, Mean
[8] = Table 6, MCF7, second biological replicant, 10 μM compound, replicate #1, read-out: n-fold increase in luciferase expression, #1
[9] = Table 6, MCF7, second biological replicant, 10 μM compound, replicate #2, read-out: n-fold increase in luciferase expression, #2
[10] = Table 6, MCF7, second biological replicant, 10 μM compound, replicate #3, read-out: n-fold increase in luciferase expression, #3
[11] = Table 5, MDA-MB-231, 10 μM compound, vs negative control (DMSO), mean of triplicate, read-out: n-fold increase in luciferase expression, Mean
[12] = Table 5, MDA-MB-231, 10 μM compound, vs negative control (DMSO), replicate #1, read-out: n-fold increase in luciferase expression, #1
[13] = Table 5, MDA-MB-231, 10 μM compound, vs negative control (DMSO), replicate #2, read-out: n-fold increase in luciferase expression, #2
[14] = Table 5, MDA-MB-231, 10 μM compound, vs negative control (DMSO), replicate #3, read-out: n-fold increase in luciferase expression, #3
[15] = Table 7, MDA-MB-231, second biological replicant, 10 μM compound, mean of triplicate, read-out: n-fold increase in luciferase expression, Mean
[16] = Table 7, MDA-MB-231, second biological replicant, 10 μM compound, replicate #1, read-out: n-fold increase in luciferase expression, #1
[17] = Table 7, MDA-MB-231, second biological replicant, 10 μM compound, replicate #2, read-out: n-fold increase in luciferase expression, #2
[18] = Table 7, MDA-MB-231, second biological replicant, 10 μM compound, replicate #3, read-out: n-fold increase in luciferase expression, #3
[19] = Table 4, MCF7, 10 μM compound, vs negative control (DMSO), mean of triplicate, read-out: n-fold increase in luciferase expression, Mean
[20] = Table 4, MCF7, 10 μM compound, vs negative control (DMSO), replicate #1, read-out: n-fold increase in luciferase expression, #1
[21] = Table 4, MCF7, 10 μM compound, vs negative control (DMSO), replicate #2, read-out: n-fold increase in luciferase expression, #2
[22] = Table 4, MCF7, 10 μM compound, vs negative control (DMSO), replicate #3, read-out: n-fold increase in luciferase expression, #3

Row | Structure (SMILES) | fold induction at 10 µM (miR-10b [1]; [3]) | fold induction at 10 µM (miR-10b [1]; [4]) | fold induction at 10 µM (miR-10b [1]; [5]) | fold induction at 10 µM (miR-10b [1]; [6]) | fold induction at 10 µM (miR-10b [1]; [7]) | fold induction at 10 µM (miR-10b [1]; [8]) | fold induction at 10 µM (miR-10b [1]; [9]) | fold induction at 10 µM (miR-10b [1]; [10]) | fold induction at 10 µM (miR-10b [2]; [11]) | fold induction at 10 µM (miR-10b [2]; [12]) | fold induction at 10 µM (miR-10b [2]; [13]) | fold induction at 10 µM (miR-10b [2]; [14]) | fold induction at 10 µM (miR-10b [2]; [15]) | fold induction at 10 µM (miR-10b [2]; [16]) | fold induction at 10 µM (miR-10b [2]; [17]) | fold induction at 10 µM (miR-10b [2]; [18]) | fold induction at 10 µM (miR-10b [1]; [19]) | fold induction at 10 µM (miR-10b [1]; [20]) | fold induction at 10 µM (miR-10b [1]; [21]) | fold induction at 10 µM (miR-10b [1]; [22]) | other results
1 | Cc1ccc(F)c(NC(=O)Nc2ccc(-c3cccc4[nH]ncc34)cc2)c1 [Example 3, 1-(4-(1H-indazol-4-yl)phenyl)-3-(2-fluoro-5-methylphenyl)urea] | 0.26 | 0.238 | 0.246 | 0.292 | 0.18 | 0.257 | 0.176 | 0.117 | 0.46 | 0.423 | 0.643 | 0.312 | 0.17 | 0.193 | 0.149 | 0.163 | – | – | – | – | –
2 | Cc1ccc(F)c(NC(=O)Nc2ccc(-c3cnc(N)nc3)cc2)c1 [Example 5, 1-(4-(2-aminopyrimidin-5-yl)phenyl)-3-(2-fluoro-5-methylphenyl)urea] | 2.86 | 1.99 | 1.49 | 5.1 | 2.12 | 3.03 | 1.73 | 1.59 | 1.04 | 1.13 | 1.01 | 0.99 | 1.3 | 0.26 | 1.57 | 2.06 | – | – | – | – | level of mature miR-10b (mature miR-10b): reduce the level of mature miR-10b; expression of pre-miR-10b (pre-miR-10b): increased expression of pre-miR-10b
3 | Cc1ccc(F)c(NC(=O)Nc2ccc(-c3cccc4c3NC(=O)C4)cc2)c1 [Example 7, 1-(2-fluoro-5-methylphenyl)-3-(4-(2-oxoindolin-7-yl)phenyl)urea] | – | – | – | – | 1.25 | 1.86 | 0.957 | 0.935 | 1.05 | 1.01 | 1.09 | 1.05 | 1.19 | 1.16 | 1.31 | 1.11 | 2.41 | 1.34 | 5.06 | 0.822 | –
4 | Cc1ccc(F)c(NC(=O)Nc2ccc(-c3ccccn3)cc2)c1 [Example 8, 1-(2-fluoro-5-methylphenyl)-3-(4-(pyridin-2-yl)phenyl)urea] | – | – | – | – | 1.24 | 1.82 | 1.04 | 0.857 | 0.78 | 0.566 | 0.991 | 0.793 | 1.15 | 1.39 | 1 | 1.05 | 3.92 | 4.6 | 6.07 | 1.08 | –
5 | Nc1n[nH]c2cccc(-c3ccc(NC(=O)Nc4ccncc4)cc3)c12 [Example 9, 1-(4-(3-amino-1H-indazol-4-yl)phenyl)-3-(pyridin-4-yl)urea] | – | – | – | – | 1.29 | 2.17 | 0.859 | 0.84 | 1.41 | 1.14 | 2.05 | 1.05 | 1.56 | 1.39 | 1.61 | 1.67 | 2.11 | 0.94 | 4.2 | 1.2 | –
